Tests used:
Test in all cases: biochemical
Adenosine receptor A2a [1] = target: Adenosine receptor A2a (Homo sapiens, UniProt P29274, H250N)
Adenosine receptor A2a [2] = target: Adenosine receptor A2a (Homo sapiens, UniProt P29274)
Description: Binding affinity for HA-tagged wild type human Adenosine A2A receptor (WT) using [3H]CGS-21680 as radioligand expressed in COS-7 cells

Adenosine receptor A2a [3] = target: Adenosine receptor A2a (Homo sapiens, UniProt P29274, V84L)
Adenosine receptor A2a (Homo sapiens, UniProt P29274, V84L), sequence (P29274 whole entry V84L): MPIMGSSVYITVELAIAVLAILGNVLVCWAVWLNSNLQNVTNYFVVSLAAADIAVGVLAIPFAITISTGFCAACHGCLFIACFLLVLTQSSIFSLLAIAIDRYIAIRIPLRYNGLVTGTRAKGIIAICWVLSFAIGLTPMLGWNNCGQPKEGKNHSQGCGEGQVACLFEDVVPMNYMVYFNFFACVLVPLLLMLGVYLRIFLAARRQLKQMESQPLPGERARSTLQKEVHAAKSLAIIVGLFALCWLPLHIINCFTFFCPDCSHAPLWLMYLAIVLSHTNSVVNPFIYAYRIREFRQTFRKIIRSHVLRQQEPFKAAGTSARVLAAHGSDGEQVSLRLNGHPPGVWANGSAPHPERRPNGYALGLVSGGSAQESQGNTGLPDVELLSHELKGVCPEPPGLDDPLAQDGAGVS

Adenosine receptor A2a (Homo sapiens, UniProt P29274), sequence (P29274 whole entry): as the sequence (P29274 whole entry V84L) above, with L84V counted along it
Adenosine receptor A2a (Homo sapiens, UniProt P29274, H250N), sequence (P29274 whole entry H250N): as the sequence (P29274 whole entry V84L) above, with L84V, H250N counted along it

| SMILES | Ki (Adenosine receptor A2a [1]) | Ki (Adenosine receptor A2a [2]) | Ki (Adenosine receptor A2a [3]) |
| --- | --- | --- | --- |
| COC(=O)C1=C(C)NC(C)=C(C(=O)OC)C1c1ccccc1[N+](=O)[O-] [NIFEDIPINE] | 22.2 µM | 244 µM | 22.2 µM |
| CCOC(=O)c1sc(SCc2ccccc2)c2c1CCCC2=O | 54.3 µM | 106 µM | 72.6 µM |
| N=C(N)NC(=O)c1nc(Cl)c(N)nc1N [AMILORIDE] | 3.28 µM | 12 µM | 11.6 µM |

Continued, values first:

| Ki (Adenosine receptor A2a [1]) | Ki (Adenosine receptor A2a [2]) | Ki (Adenosine receptor A2a [3]) | SMILES |
| --- | --- | --- | --- |
| 33 µM | 16.7 µM | 18.1 µM | O=c1c(O)c(-c2ccccc2)oc2cc(O)cc(O)c12 [GALANGIN] |
| 0.0359 µM | 0.0381 µM | 0.0189 µM | COc1cc(OC)cc(C(CNc2ncnc3c2ncn3[C@@H]2O[C@H](CO)[C@@H](O)[C@H]2O)c2ccccc2C)c1 (stereo not given in full) |
